Measurements from patent US20200237742A1, “Serdexmethylphenidate Conjugates, Compositions And Methods Of Use Thereof” (priority 2018, published 2020).

System: healthy, nondependent, recreational stimulant users with intranasal insufflation experience
Assay: Intranasal study, treatment-emergent adverse events (Table 54)
Procedure: The study consisted of a Screening Period, an in-clinic Drug Discrimination Phase, a Treatment Phase, and a Follow-Up Visit.
All subjects were required to fast for at least 8 hours prior to each dose of study drug until approximately 4 hours after each dose. Abuse potential measures and pharmacokinetic samples were collected at different times after the administration of study drug. Subjects who successfully completed the Drug Discrimination Phase and who qualified for the Treatment Phase remained as inpatients to enter the Treatment Phase.

[1] = intranasal, d-MPH HCl 40 mg, SDX Cl 80 mg, N = 46 each

## COC(=O)[C@H](c1ccccc1)[C@H]1CCCCN1C(=O)OC[n+]1cccc(C(=O)N[C@@H](CO)C(=O)O)c1.[Cl-] [serdexmethylphenidate chloride]
Intranasal SDX Cl compared to intranasal d-MPH HCl
  respiratory, thoracic, and eye disorders (nasal discomfort, nasal congestion, rhinorrhoea, epistaxis, increased lacrimation): occurred more often
[1]
  Abdominal distension, number of occurrences: 1 E
  Abdominal distension, subjects with event: 1 (2.2%) n (%)
  Abdominal pain, number of occurrences: 2 E
  Abdominal pain, subjects with event: 2 (4.3%) n (%)
  Agitation, number of occurrences: 1 E
  Agitation, subjects with event: 1 (2.2%) n (%)
  Anxiety, number of occurrences: 1 E
  Anxiety, subjects with event: 1 (2.2%) n (%)
  Any TEAE, number of occurrences: 102 E
  Any TEAE, subjects with event: 36 (78.3%) n (%)
  Arthralgia, number of occurrences: 1 E
  Arthralgia, subjects with event: 1 (2.2%) n (%)
  Asthenia, number of occurrences: 1 E
  Asthenia, subjects with event: 1 (2.2%) n (%)
  Back pain, subjects with event: 0 n (%)
  Blood pressure diastolic increased, subjects with event: 0 n (%)
  Bruxism, subjects with event: 0 n (%)
  Cardiac disorders, number of occurrences: 2 E
  Cardiac disorders, subjects with event: 2 (4.3%) n (%)
  Catheter site haematoma, number of occurrences: 1 E
  Catheter site haematoma, subjects with event: 1 (2.2%) n (%)
  Catheter site swelling, number of occurrences: 1 E
  Catheter site swelling, subjects with event: 1 (2.2%) n (%)
  Change in sustained attention, subjects with event: 0 n (%)
  Chest discomfort, subjects with event: 0 n (%)
  Chest pain, number of occurrences: 1 E
  Chest pain, subjects with event: 1 (2.2%) n (%)
  Claustrophobia, number of occurrences: 1 E
  Claustrophobia, subjects with event: 1 (2.2%) n (%)
  Cough, number of occurrences: 3 E
  Cough, subjects with event: 3 (6.5%) n (%)
  Decreased appetite, subjects with event: 0 n (%)
  Defaecation urgency, subjects with event: 0 n (%)
  Diarrhoea, number of occurrences: 1 E
  Diarrhoea, subjects with event: 1 (2.2%) n (%)
  Disturbance in attention, number of occurrences: 1 E
  Disturbance in attention, subjects with event: 1 (2.2%) n (%)
  Dizziness, number of occurrences: 1 E
  Dizziness, subjects with event: 1 (2.2%) n (%)
  Dry mouth, subjects with event: 0 n (%)
  Dry throat, subjects with event: 0 n (%)
  Dysgeusia, number of occurrences: 2 E
  Dysgeusia, subjects with event: 2 (4.3%) n (%)
  Dysmenorrhoea (menstrual cramps), subjects with event: 0 n (%)
  Dyspepsia, subjects with event: 0 n (%)
  Ecchymosis (skin discoloration), number of occurrences: 1 E
  Ecchymosis (skin discoloration), subjects with event: 1 (2.2%) n (%)
  Energy increased, subjects with event: 0 n (%)
  Epistaxis (nosebleed), number of occurrences: 3 E
  Epistaxis (nosebleed), subjects with event: 3 (6.5%) n (%)
  Euphoric mood, number of occurrences: 9 E
  Euphoric mood, subjects with event: 9 (19.6%) n (%)
  Eye disorders, number of occurrences: 9 E
  Eye disorders, subjects with event: 8 (17.4%) n (%)
  Eye irritation, subjects with event: 0 n (%)
  Eye pain, number of occurrences: 1 E
  Eye pain, subjects with event: 1 (2.2%) n (%)
  Fatigue, number of occurrences: 1 E
  Fatigue, subjects with event: 1 (2.2%) n (%)
  Feeling hot, subjects with event: 0 n (%)
  Feeling of relaxation, number of occurrences: 2 E
  Feeling of relaxation, subjects with event: 2 (4.3%) n (%)
  Flushing, subjects with event: 0 n (%)
  Gastrointestinal disorders, number of occurrences: 6 E
  Gastrointestinal disorders, subjects with event: 4 (8.7%) n (%)
  General disorders and administration site conditions, number of occurrences: 7 E
  General disorders and administration site conditions, subjects with event: 6 (13.0%) n (%)
  Haematoma, subjects with event: 0 n (%)
  Head discomfort, number of occurrences: 1 E
  Head discomfort, subjects with event: 1 (2.2%) n (%)
  Headache, number of occurrences: 6 E
  Headache, subjects with event: 5 (10.9%) n (%)
  Hyperhidrosis, number of occurrences: 2 E
  Hyperhidrosis, subjects with event: 2 (4.3%) n (%)
  Hypervigilance, number of occurrences: 6 E
  Hypervigilance, subjects with event: 6 (13.0%) n (%)
  Hypopnoea (shallow breathing), subjects with event: 0 n (%)
  Infections and infestations, subjects with event: 0 n (%)
  Investigations, subjects with event: 0 n (%)
  Irritability, number of occurrences: 1 E
  Irritability, subjects with event: 1 (2.2%) n (%)
  Lacrimation increased, number of occurrences: 8 E
  Lacrimation increased, subjects with event: 8 (17.4%) n (%)
  Metabolism and nutrition disorders, subjects with event: 0 n (%)
  Muscle tightness, subjects with event: 0 n (%)
  Muscle twitching, subjects with event: 0 n (%)
  Musculoskeletal and connective tissue disorders, number of occurrences: 1 E
  Musculoskeletal and connective tissue disorders, subjects with event: 1 (2.2%) n (%)
  Nasal congestion, number of occurrences: 10 E
  Nasal congestion, subjects with event: 10 (21.7%) n (%)
  Nasal discomfort, number of occurrences: 14 E
  Nasal discomfort, subjects with event: 13 (28.3%) n (%)
  Nasal dryness, number of occurrences: 1 E
  Nasal dryness, subjects with event: 1 (2.2%) n (%)
  Nausea, number of occurrences: 2 E
  Nausea, subjects with event: 2 (4.3%) n (%)
  Neck pain, subjects with event: 0 n (%)
  Nervous system disorders, number of occurrences: 12 E
  Nervous system disorders, subjects with event: 11 (23.9%) n (%)
  Obsessive-compulsive disorder, subjects with event: 0 n (%)
  Palpitations, number of occurrences: 2 E
  Palpitations, subjects with event: 2 (4.3%) n (%)
  Peripheral swelling, subjects with event: 0 n (%)
  Pharyngeal hypoaesthesia (numbness of throat), subjects with event: 0 n (%)
  Pharyngitis, subjects with event: 0 n (%)
  Phlebitis superficial, subjects with event: 0 n (%)
  Phonophobia (fear of loud noises), subjects with event: 0 n (%)
  Photophobia, subjects with event: 0 n (%)
  Psychiatric disorders, number of occurrences: 19 E
  Psychiatric disorders, subjects with event: 13 (28.3%) n (%)
  Pyrexia, subjects with event: 0 n (%)
  Reproductive system and breast disorders, subjects with event: 0 n (%)
  Respiratory, thoracic and mediastinal disorders, number of occurrences: 42 E
  Respiratory, thoracic and mediastinal disorders, subjects with event: 25 (54.3%) n (%)
  Restlessness, subjects with event: 0 n (%)
  Rhinorrhoea (runny nose), number of occurrences: 4 E
  Rhinorrhoea (runny nose), subjects with event: 4 (8.7%) n (%)
  Sinus tachycardia, subjects with event: 0 n (%)
  Skin and subcutaneous tissue disorders, number of occurrences: 4 E
  Skin and subcutaneous tissue disorders, subjects with event: 4 (8.7%) n (%)
  Skin erosion, number of occurrences: 1 E
  Skin erosion, subjects with event: 1 (2.2%) n (%)
  Sneezing, number of occurrences: 1 E
  Sneezing, subjects with event: 1 (2.2%) n (%)
  Somnolence, number of occurrences: 1 E
  Somnolence, subjects with event: 1 (2.2%) n (%)
  Tachycardia, subjects with event: 0 n (%)
  Testis discomfort, subjects with event: 0 n (%)
  Throat irritation, number of occurrences: 4 E
  Throat irritation, subjects with event: 3 (6.5%) n (%)
  Upper-airway cough syndrome, number of occurrences: 2 E
  Upper-airway cough syndrome, subjects with event: 2 (4.3%) n (%)
  Vascular disorders, subjects with event: 0 n (%)
  Ventricular extrasystoles, subjects with event: 0 n (%)
  Vessel puncture site bruise, subjects with event: 0 n (%)
  Vessel puncture site pain, subjects with event: 0 n (%)
  Visual impairment, subjects with event: 0 n (%)
  Vomiting, subjects with event: 0 n (%)
